Test results from patent publication US6984510B2, “Vitamin B6-phosphate phosphatase” (DSM IP Assets B.V., priority 2001, dated 2006).
Where two headings read alike, the source gives them in different places. Each block holds one compound with its values, some of them ahead of it.

Experiments:
VB6PP [1] = target: T1, VB6PP (Sinorhizobium meliloti, UniProt A7BK78); assay: co-factor requirement of the enzyme to convert VB6P to vitamin B6 (standard enzyme assay); format: biochemical; parameters: Relative activity (%): concentration or dose not given beside the values
T1 sequence (A7BK78 entry or part of it): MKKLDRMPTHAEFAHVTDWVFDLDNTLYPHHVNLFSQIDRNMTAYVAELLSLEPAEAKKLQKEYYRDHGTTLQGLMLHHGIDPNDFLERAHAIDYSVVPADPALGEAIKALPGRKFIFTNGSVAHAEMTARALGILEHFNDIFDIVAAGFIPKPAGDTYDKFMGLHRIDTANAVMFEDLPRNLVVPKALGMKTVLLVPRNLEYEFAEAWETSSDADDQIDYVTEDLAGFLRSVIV

VB6PP [2] = target: T1, VB6PP; assay: substrate specificity of the enzyme (phosphate release, malachite green method); format: biochemical; conditions: for Relative activity (%): substrate 160 μM final concentration, PNP = 100
Description: After incubation for 30 minutes, the reaction mixture was cooled down into an ice bath. Activity was determined in the following two ways. […] One unit of the enzyme activity was defined as-the amount of enzyme synthesizing 1 μmole of vitamin B6 for 30 minutes in the assay system described above.

[3] = metal salt as co-factor, MnCl2 = 100

SMILES: [Cl][Sn][Cl] [SnCl2]
- co-factor for conversion of VB6P to vitamin B6 (VB6PP [1]; divalent metal ion): could serve as a co-factor
- Relative activity (%) (VB6PP [1]; [3]): 11%

SMILES: [Cl-].[Cl-].[Co+2] [CoCl2]
- Relative activity (%) (VB6PP [1]): 65%
- co-factor for conversion of VB6P to vitamin B6 (VB6PP [1]): could serve as a co-factor

SMILES: Nc1ncnc2c1ncn2[C@@H]1O[C@H](COP(=O)(O)OP(=O)(O)O)[C@@H](O)[C@H]1O [adenosine diphosphate]
- Relative activity (%) (VB6PP [2]): 0%

SMILES: O=[N+]([O-])c1ccc(OP(=O)(O)O)cc1 [p-nitrophenyl phosphate]
- Relative activity (%) (VB6PP [2]): 29%

- Relative activity (%) (VB6PP [2]): 0%
SMILES: O=C(O)COP(=O)(O)O [2-phosphoglycolic acid]

- Substrate specificity (VB6PP [2]): active
- Relative activity (%) (VB6PP [2]): 0.1%
SMILES: Cc1ncc(COP(=O)(O)O)c(CN)c1O [PMP, pyridoxamine 5′-phosphate]

- Relative activity (%) (VB6PP [2]): 6%
SMILES: Nc1ncnc2c1ncn2[C@@H]1O[C@H](COP(=O)(O)O)[C@@H](O)[C@H]1O [adenosine monophosphate]

SMILES: [Cl][Ni][Cl] [NiCl2]
- co-factor for conversion of VB6P to vitamin B6 (VB6PP [1]; divalent metal ion): could serve as a co-factor
- Relative activity (%) (VB6PP [1]; [3]): 7%

SMILES: N[C@@H](COP(=O)(O)O)C(=O)O [O-phospho-L-serine]
- Relative activity (%) (VB6PP [2]): 0%

SMILES: O=P(O)(O)Oc1cccc2ccccc12 [1-naphthyl phosphate]
- Relative activity (%) (VB6PP [2]): 9%

SMILES: Nc1ncnc2c1ncn2[C@@H]1O[C@H](COP(=O)(O)OP(=O)(O)OP(=O)(O)O)[C@@H](O)[C@H]1O [adenosine triphosphate]
- Relative activity (%) (VB6PP [2]): 0%

SMILES: [Cl][Mn][Cl] [MnCl2]
- co-factor for conversion of VB6P to vitamin B6 (VB6PP [1]; divalent metal ion): could serve as a co-factor
- Relative activity (%) (VB6PP [1]; [3]): 100%

SMILES: [Cl-].[Cl-].[Mg+2] [MgCl2]
- co-factor for conversion of VB6P to vitamin B6 (VB6PP [1]; divalent metal ion): could serve as a co-factor
- Relative activity (%) (VB6PP [1]; [3]): 88%

- Relative activity (%) (VB6PP [2]): 0%
SMILES: O=C[C@H](O)[C@@H](O)[C@H](O)[C@H](O)COP(=O)(O)O [D-glucose 6-phosphate]

- Substrate specificity (VB6PP [2]): active
- Relative activity (%) (VB6PP [2]): 40%
SMILES: Cc1ncc(COP(=O)(O)O)c(C=O)c1O [PLP, pyridoxal 5′-phosphate]

- Relative activity (%) (VB6PP [2]): 0%
SMILES: O=C(O)C(O)COP(=O)(O)O (stereo not drawn) [D(−)3-phosphoglyceric acid]
